For eleven compounds, TGI results are on record in PubChem BioAssay (NCI).

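Compound exposure: 48 hours, 5 concentrations, 96-well plates. TGI: total growth inhibition.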

Test systems include NCI-H460 lung; OVCAR-3 ovarian; MDA-MB-231 breast; TK-10 renal; COLO 205 colon; CCRF-CEM leukemia; NCI/ADR-RES ovarian; LOX IMVI melanoma; SF-539 CNS; MDA-MB-435.
Assay in all cases: NCI tumour cell line growth inhibition, 48 h

Regarding `C[C@]12CCC3C4=C(CCC3C1CCC2=O)C(=O)[C@H]1O[C@H]1C4=O` (stereo not given in full), the TGI in the experiment on NCI-H460 lung stood at 23.9 µM; in the experiment with OVCAR-3 ovarian it was 3.15 µM; in the experiment on MDA-MB-231 breast it was 3.64 µM; in the experiment with TK-10 renal, 10.8 µM; with COLO 205 colon, 9.23 µM; in the experiment on CCRF-CEM leukemia, 4.07 µM. For the same compound, the TGI in the experiment on NCI/ADR-RES ovarian is 17.3 µM; with LOX IMVI melanoma it was 5.18 µM; with SF-539 CNS, 5.38 µM; in the experiment with MDA-MB-435 it was 24.9 µM.

For `COC(=O)C1=C(C(=O)OC)SC(=C2SCSC3=C2SC(C(=O)OC)=C(C(=O)OC)C32SC3=C(CCCC3)S2)S1`, the TGI in the experiment with NCI-H460 lung, in the experiment with OVCAR-3 ovarian, in the experiment on MDA-MB-231 breast, in the experiment with TK-10 renal, in the experiment on COLO 205 colon and in the experiment on CCRF-CEM leukemia was greater than 100 µM each time. In addition, the TGI in the experiment with NCI/ADR-RES ovarian, with LOX IMVI melanoma, in the experiment on SF-539 CNS and in the experiment on MDA-MB-435 was greater than 100 µM each time.

Turning to `O=C(/C=C/c1ccccc1)C[C@@H](O)C[C@@H]1CC=CC(=O)O1`, the TGI with NCI-H460 lung is 39.5 µM; in the experiment with OVCAR-3 ovarian, 13.3 µM; with MDA-MB-231 breast, 27.5 µM; in the experiment on TK-10 renal, 28.9 µM; with COLO 205 colon, 17.8 µM; with CCRF-CEM leukemia it was 5.12 µM. Besides, the TGI in the experiment with NCI/ADR-RES ovarian was greater than 85.5 µM; in the experiment on LOX IMVI melanoma it was 7.02 µM; in the experiment on SF-539 CNS it was 14.9 µM; in the experiment on MDA-MB-435, 26.6 µM.

Regarding `CC(=O)c1c2c(c3ccccc3c1O)O[C@@H]1OCC[C@H]21`, the TGI in the experiment on NCI-H460 lung, in the experiment with OVCAR-3 ovarian, with MDA-MB-231 breast, with TK-10 renal, with COLO 205 colon and in the experiment with CCRF-CEM leukemia was greater than 100 µM in each case. Besides, the TGI in the experiment on NCI/ADR-RES ovarian, in the experiment on LOX IMVI melanoma, in the experiment on SF-539 CNS and in the experiment on MDA-MB-435 was greater than 100 µM in each case.

As to `O=[N+]([O-])c1cc(C=NC23CC4CC(CC(C4)C2)C3)ccc1Cl`, the TGI in the experiment with NCI-H460 lung was greater than 71 µM; in the experiment with OVCAR-3 ovarian, 33.9 µM; in the experiment with MDA-MB-231 breast it was 24.7 µM; in the experiment on TK-10 renal, greater than 87.2 µM; with COLO 205 colon, greater than 70.3 µM; in the experiment with CCRF-CEM leukemia it was 7.97 µM. Besides, the TGI in the experiment on NCI/ADR-RES ovarian came to 70.9 µM; with LOX IMVI melanoma it was 36.9 µM; with SF-539 CNS, 55.7 µM; in the experiment with MDA-MB-435 it was 42.2 µM.

As to `Nc1nc(-c2ccccc2)nc2oc(-c3cccs3)nc12`, the TGI in the experiment on NCI-H460 lung, with OVCAR-3 ovarian, with MDA-MB-231 breast, in the experiment on TK-10 renal, with COLO 205 colon and with CCRF-CEM leukemia was greater than 100 µM throughout. For the same compound, the TGI with NCI/ADR-RES ovarian, in the experiment on LOX IMVI melanoma, with SF-539 CNS and in the experiment on MDA-MB-435 was greater than 100 µM throughout.

For `CCN(CC)C(=S)N/N=C/c1cc([N+](=O)[O-])ccc1O`, the TGI was determined as 24.8 µM with NCI-H460 lung; 13.3 µM in the experiment on OVCAR-3 ovarian; 30.4 µM in the experiment with MDA-MB-231 breast; 37.1 µM in the experiment with TK-10 renal; 18.1 µM with COLO 205 colon; 8.06 µM with CCRF-CEM leukemia. Further, the TGI with NCI/ADR-RES ovarian was 13.9 µM; in the experiment on LOX IMVI melanoma, 18.5 µM; with SF-539 CNS it was 28.3 µM; in the experiment on MDA-MB-435, 76.9 µM.

With `COc1cccc(C2SC(N)=Nc3c2c(C)nn3C(=O)c2ccccc2O)c1` (stereo not given), the TGI with NCI-H460 lung was greater than 10 µM; in the experiment on OVCAR-3 ovarian, greater than 7.61 µM; with MDA-MB-231 breast it was greater than 9.64 µM; in the experiment with TK-10 renal, greater than 10 µM; with COLO 205 colon, greater than 10 µM; with CCRF-CEM leukemia, greater than 10 µM. Besides, the TGI in the experiment with NCI/ADR-RES ovarian was greater than 10 µM; with LOX IMVI melanoma, greater than 10 µM; in the experiment with SF-539 CNS, greater than 2.64 µM; in the experiment on MDA-MB-435 it was greater than 10 µM.

Take `CC(C)c1cc2c(cc1S(=O)(=O)O)[C@@]1(C)CCC[C@@](C)(C(=O)O)C1CC2` (stereo not given in full): the TGI with NCI-H460 lung, with OVCAR-3 ovarian, in the experiment with MDA-MB-231 breast, in the experiment with TK-10 renal, in the experiment with COLO 205 colon and with CCRF-CEM leukemia was greater than 100 µM each time. The TGI in the experiment on NCI/ADR-RES ovarian, in the experiment on LOX IMVI melanoma, in the experiment with SF-539 CNS and in the experiment with MDA-MB-435 was greater than 100 µM in each case.

For `Cc1oc2c(cc(O)c3cc(O)ccc32)c2cccc1-2`, the TGI in the experiment with NCI-H460 lung, with OVCAR-3 ovarian, with MDA-MB-231 breast, in the experiment with TK-10 renal, in the experiment on COLO 205 colon and in the experiment on CCRF-CEM leukemia was greater than 100 µM throughout. Besides, the TGI in the experiment with NCI/ADR-RES ovarian, in the experiment with LOX IMVI melanoma, in the experiment with SF-539 CNS and in the experiment with MDA-MB-435 was greater than 100 µM throughout.

`C#CCn1c(=O)c2ccccc2n(CC#C)c1=O`: the TGI in the experiment on NCI-H460 lung, with OVCAR-3 ovarian, with MDA-MB-231 breast, with TK-10 renal, in the experiment with COLO 205 colon and in the experiment with CCRF-CEM leukemia was greater than 10 µM in each case. In addition, the TGI with NCI/ADR-RES ovarian, with LOX IMVI melanoma, with SF-539 CNS and in the experiment on MDA-MB-435 was greater than 10 µM in each case.
